Data from patent publication US20260232666A1, “COMPOSITIONS AND METHODS FOR INHIBITION OF RAS” (TheRas, Inc., priority 2023, published 2026).

How the values were obtained:
Type in all cases: binding
Conditions in all cases: 15 minutes reaction time point
[1] = biological target: T1, GppNHp-loaded KRAS4b (amino acids 1-169) G12C/C118S protein (Homo sapiens, UniProt P01116, C118S/G12C); assay: Covalent cysteine 12 modification by MALDI-TOF MS, GppNHp-loaded KRAS G12C
T1 construct: KRAS4b (amino acids 1-169) G12C/C118S protein; made in house
Summary of the method: (§1)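 Covalent adduct formation measured by linear-mode MALDI-TOF MS as modified peak height over summed peak heights, 15 min time point reported. Reactions: KRAS4b 1-169 G12C/C118S (1 μM, loaded with GppNHp, GTP or GDP) plus compound at 1:2.5 ratio, pH 7.3 HEPES/NaCl/MgCl2, room temperature.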

[2] = biological target: T2, GTP-loaded KRAS4b (amino acids 1-169) G12C/C118S protein (Homo sapiens, UniProt P01116, C118S/G12C); assay: Covalent cysteine 12 modification by MALDI-TOF MS, GTP-loaded KRAS G12C
T2 construct: KRAS4b (amino acids 1-169) G12C/C118S protein; made in house
Summary of the method: as §1

[3] = biological target: T3, GDP-loaded KRAS4b (amino acids 1-169) G12C/C118S protein (Homo sapiens, UniProt P01116, C118S/G12C); assay: Covalent cysteine 12 modification by MALDI-TOF MS, GDP-loaded KRAS G12C
T3 construct: KRAS4b (amino acids 1-169) G12C/C118S protein; made in house
Summary of the method: as §1

| SMILES | GppNHp-KRAS G12C percent of modification [1] | GTP-KRAS G12C percent of modification [2] | GDP-KRAS G12C percent of modification [3] |
| --- | --- | --- | --- |
| C=CC(=O)N1CC[C@@H](N(C)c2nc(OC[C@@]34CCCN3C[C@H](F)C4)nc3c(F)c(-c4ccc(F)c5sc(N)c(C#N)c45)c(Cl)cc23)[C@@H]1C (atropisomer, axis not shown) [Compound 68] | A (percent of modification ≥70%) | A (percent of modification ≥70%) | A (percent of modification ≥70%) |
| C=CC(=O)N1CC[C@@H](N(C)c2nc(OC[C@@]34CCCN3C[C@H](F)C4)nc3c(F)c(-c4ccc(F)c5sc(N)c(C#N)c45)c(Cl)cc23)[C@@H]1C (atropisomer, axis not shown) [Compound 69] | D (percent of modification <10%) | D (percent of modification <10%) | D (percent of modification <10%) |
| C=CC(=O)N1CCC(N(C)c2nc(OC[C@@H]3CCCN3C3CC3)nc3c(F)c(-c4ccc(F)c5sc(N)c(C#N)c45)c(C(F)(F)F)cc23)[C@H]1C (stereo partly shown) [Compound 1] | C (10%≤percent of modification <50%) | C (10%≤percent of modification <50%) | B (50≤percent of modification <70%) |
| C=CC(=O)N1CCC(N(C)c2nc(OC[C@@]34CCCN3C[C@H](F)C4)nc3c(F)c(-c4ccc(F)c5sc(N)c(C#N)c45)c(Cl)cc23)[C@H]1CC (stereo partly shown) [Compound 2] | D (percent of modification <10%) | D (percent of modification <10%) | B (50≤percent of modification <70%) |
| C=CC(=O)N1CCC(N(C)c2nc(OC[C@@]34CCCN3C[C@H](F)C4)nc3c(F)c(-c4ccc(F)c5sc(N)c(C#N)c45)c(C(F)(F)F)cc23)[C@H]1CC (stereo partly shown) [Compound 3] | C (10%≤percent of modification <50%) | B (50≤percent of modification <70%) | C (10%≤percent of modification <50%) |
| C=CC(=O)N1C[C@H]2C[C@@H]1CN2c1nc(OC[C@@]23CCCN2C[C@H](F)C3)nc2c(F)c(-c3ccc(F)c4sc(N)c(C#N)c34)c(C(F)(F)F)cc12 [Compound 37] | D (percent of modification <10%) | D (percent of modification <10%) | C (10%≤percent of modification <50%) |
| C=CC(=O)N1CC[C@@H](N(CC)c2nc(OC[C@@]34CCCN3C[C@H](F)C4)nc3c(F)c(-c4ccc(F)c5sc(N)c(C#N)c45)c(C(F)(F)F)cc23)[C@H]1CC [Compound 39] | C (10%≤percent of modification <50%) | C (10%≤percent of modification <50%) | C (10%≤percent of modification <50%) |
| C=CC(=O)N1CC[C@@H](N(CC)c2nc(OC[C@@]34CCCN3C[C@H](F)C4)nc3cc(-c4ccc(F)c5sc(N)c(C#N)c45)c(C#N)cc23)[C@@H]1CC [Compound 40] | D (percent of modification <10%) | D (percent of modification <10%) | A (percent of modification ≥70%) |
| C=CC(=O)N1CC[C@@H](N(CC)c2nc(OC[C@@]34CCCN3C[C@H](F)C4)nc3cc(-c4ccc(F)c5sc(N)c(C#N)c45)c(F)cc23)[C@@H]1CC [Compound 41] | D (percent of modification <10%) | D (percent of modification <10%) | A (percent of modification ≥70%) |
| C=CC(=O)N1CC[C@@H](N(C)c2nc(OC[C@@]34CCCN3C[C@H](F)C4)nc3cc(-c4ccc(F)c5sc(N)c(C#N)c45)c(C#N)cc23)[C@H]1CC [Compound 42] | A (percent of modification ≥70%) | A (percent of modification ≥70%) | A (percent of modification ≥70%) |
| C=CC(=O)N1CC[C@@H](N(CC)c2nc(OC[C@@H]3C[C@@H](OC)CN3C)nc3c(F)c(-c4ccc(F)c5sc(N)c(C#N)c45)c(C(F)(F)F)cc23)[C@H]1C [Compound 45, 4-(4-(((2R,3R)-1-acryloyl-2-methylpyrrolidin-3-yl)(ethyl)amino)-8-fluoro-2-(((2S,4R)-4-methoxy-1-methylpyrrolidin-2-yl)methoxy)-6-(trifluoromethyl)quinazolin-7-yl)-2-amino-7-fluorobenzo[b]thiophene-3-carbonitrile] | A (percent of modification ≥70%) | B (50≤percent of modification <70%) | A (percent of modification ≥70%) |
| C=CC(=O)N1CC2CC(C1)N2c1nc(OC[C@@]23CCCN2C[C@H](F)C3)nc2c(F)c(-c3ccc(F)c4sc(N)c(C#N)c34)c(C(F)(F)F)cc12 [Compound 46] | D (percent of modification <10%) | D (percent of modification <10%) | C (10%≤percent of modification <50%) |
| C=CC(=O)N1CC2CCC(C1)N2c1nc(OC[C@@]23CCCN2C[C@H](F)C3)nc2c(F)c(-c3ccc(F)c4sc(N)c(C#N)c34)c(C(F)(F)F)cc12 [Compound 49] | C (10%≤percent of modification <50%) | D (percent of modification <10%) | A (percent of modification ≥70%) |
| C=CC(=O)N1CC[C@@H](N(CC)c2nc(OC[C@@]34CCCN3C[C@H](F)C4)nc3c(F)c(-c4ccc(F)c5sc(N)c(C#N)c45)ccc23)[C@@H]1CC [Compound 50] | D (percent of modification <10%) | D (percent of modification <10%) | A (percent of modification ≥70%) |
| C=CC(=O)N1CC[C@@H](N(CC)c2nc(OC[C@@H]3C[C@@H](F)CN3C)nc3c(F)c(-c4ccc(F)c5sc(N)c(C#N)c45)c(C(F)(F)F)cc23)[C@H]1C [Compound 52] | B (50≤percent of modification <70%) | A (percent of modification ≥70%) | C (10%≤percent of modification <50%) |
| C=CC(=O)N1CC[C@@H](N(C)c2nc(OC[C@@H]3CCCN3C)nc3c(F)c(-c4ccc(F)c5sc(N)c(C#N)c45)c(Cl)cc23)[C@H]1C [Compound 59] | A (percent of modification ≥70%) | A (percent of modification ≥70%) | – |
| C=CC(=O)N1CC[C@@H](N(C)c2nc(OC[C@@H]3C[C@@H](F)CN3C)nc3c(F)c(-c4ccc(F)c5sc(N)c(C#N)c45)c(Cl)cc23)[C@H]1C [Compound 61] | C (10%≤percent of modification <50%) | C (10%≤percent of modification <50%) | – |
| C=CC(=O)N1CC[C@@H](N(C)c2nc(OC[C@@H]3CC4(CC4)CN3C)nc3c(F)c(-c4ccc(F)c5sc(N)c(C#N)c45)c(Cl)cc23)[C@H]1C [Compound 64] | B (50≤percent of modification <70%) | B (50≤percent of modification <70%) | – |
| C=CC(=O)N1CC[C@@H](N(CC)c2nc(OC[C@@H]3CC4(CC4)CN3C)nc3c(F)c(-c4ccc(F)c5sc(N)c(C#N)c45)c(C(F)(F)F)cc23)[C@H]1C [Compound 65] | A (percent of modification ≥70%) | A (percent of modification ≥70%) | – |
| C=CC(=O)N1CC[C@@H](N(CC)c2nc(OC[C@@H]3CCCN3C)nc3c(F)c(-c4ccc(F)c5sc(N)c(C#N)c45)c(C(F)(F)F)cc23)[C@H]1C [Compound 66] | A (percent of modification ≥70%) | A (percent of modification ≥70%) | – |
| C=CC(=O)N1CC[C@@H](N(C)c2nc(OC[C@@H]3C[C@@H](OC)CN3C)nc3c(F)c(-c4ccc(F)c5sc(N)c(C#N)c45)c(Cl)cc23)[C@@H]1C [Compound 79] | A (percent of modification ≥70%) | C (10%≤percent of modification <50%) | – |
| C=CC(=O)N1CC[C@@H](N(C)c2nc(OC[C@@H]3CCCN3CC)nc3c(F)c(-c4ccc(F)c5sc(N)c(C#N)c45)c(Cl)cc23)[C@@H]1C [Compound 84] | A (percent of modification ≥70%) | B (50≤percent of modification <70%) | – |
| C=CC(=O)N1CC[C@@H](N(C)c2nc(OC[C@@H]3CCCN3CC)nc3c(F)c(-c4ccc(F)c5sc(N)c(C#N)c45)c(C(F)(F)F)cc23)[C@H]1C [Compound 88] | – | B (50≤percent of modification <70%) | B (50≤percent of modification <70%) |
